From US12263200B2, “Specific nutritional or therapeutic agent including a mixture of grape and blueberry” (priority 2015, dated 2025)

System: SK-N-SH cells
Test: Test 3: protection of neuronal cells against hydrogen peroxide (LDH cell death test, Resazurin cell survival test)
Format: cell-based, human
Details: for protection of cells against hydrogen peroxide, cumulative treatment, polyphenols taken individually (cell survival, Resazurin test): 1 μM, 1 nM and 1 pM for 3 consecutive days, then hydrogen peroxide 250 μM, analyzed 24 hours later; for protection of cells against hydrogen peroxide, acute treatment (cell death LDH release, survival Resazurin test): toxic hydrogen peroxide (250 μM), co-treated 24 hours at 1 μM, 1 nM and 1 pM
Description: For this, SK-N-SH cells, a cell line of human neuroblasts, were kept in a MEM supplemented with 10% (v/v) FBS, 100 U/ml of penicillin, 100 μg/ml of streptomycin and 1% sodium pyruvate (1 mM) in a humidified incubator at 37° C. with 5% CO2. The cells were grown to 80% confluence then seeded in multi-well cell culture plates to create different experimental models. The neuroprotective effect of the different compounds was analyzed by two different and complementary tests: the cell death quantification test and the cell survival test.
The cell death test is a colorimetric test based on measuring the activity of the lactate dehydrogenase (LDH) released by the cytosol from damaged cells in the supernatant.
The cell survival test was performed by conducting a Resazurin Test. Resazurin is an oxidation-reduction indicator of the permeable cell that can be used to monitor the number of viable cells by using tetrazolium compounds. The viable cells with an active metabolism can reduce resazurin into a resorufin product that is pink and fluorescent.
SK-N-SH neuronal cells were subjected to a toxic concentration of hydrogen peroxide (250 μM) and co-treated with epicatechin, catechin or ferulic acid at 1 μM, 1 nM and 1 pM for 24 hours. On completing the treatment, the cells were washed twice and cell death (release of LDH) and survival (Resazurin test) were analyzed.
In order to study the synergistic effect of epicatchin, catechin and ferulic acid, the SK-N-SH neuronal cells were subjected for 24 hours to a toxic concentration of hydrogen peroxide and co-treated with a mix comprising epicatechin, catechin and ferulic acid, said mix being tested at the different concentrations of 1 μM, 1 nM or 1 pM. On completing the treatment, the cells were washed twice and the cell death (release of LDH) and survival (Resazurin test) were analyzed.
The neuroprotective effects of the three polyphenols, i.e. epicatechin, catechin and ferulic acid, with a cumulative treatment, were then studied. The SK-N-SH cells were grown to 80% confluence then seeded in multi-well cell culture plates. […] On the third day, the cells were subjected to a toxic concentration of hydrogen peroxide (250 μM) and the protection was analyzed 24 hours later. On completing the treatment, the cells were washed twice and cell survival (Resazurin test) was analyzed.
In order to study the synergistic effect of epicatechin, catechin and ferulic acid, the SK-N-SH cells were grown to 80% confluence then seeded in multi-well cell culture plates. […] On the third day, the cells were subjected to a toxic concentration of hydrogen peroxide (125 μM and 250 μM) and the protection was analyzed 24 hours later. On completing the treatment, the cells were washed twice and cell survival (Resazurin test) was analyzed. […]

| Compound | protection of cells against hydrogen peroxide, cumulative treatment, polyphenols taken individually (cell survival, Resazurin test) | protection of cells against hydrogen peroxide, acute treatment (cell death LDH release, survival Resazurin test) |
| --- | --- | --- |
| COc1cc(/C=C/C(=O)O)ccc1O [ferulic acid] | do not protect the cells against hydrogen peroxide | do not protect the cells against hydrogen peroxide |
| catechin | do not protect the cells against hydrogen peroxide | do not protect the cells against hydrogen peroxide |
